Source: patent US6599499B1, “Uses of diterpenoid triepoxides as an anti-proliferative agent” (priority 1999, dated 2003)

Columns and labels:
[1] = tested on: HT-1080 (fibrosarcoma) cells; experiment: Cell viability by MTT assay, HT-1080 cells; settings: for Percent survival: MTT after 48 h
Protocol: Cell culture and luciferase assay. A549 (non-small cell lung cancer), HT-1080 (fibrosarcoma), and MCF-7 (breast cancer) cells were cultured in the appropriate media with 10% FCS supplemented with L-glutamine, penicillin, and streptomycin. p53 wild-type (+/+) and null (−/−) Mouse Embryonic Fibroblasts (MEFs) transfected with the E1A/Ras were grown in DMEM containing 15% FCS supplemented with L-glutamine, penicillin, and streptomycin. Transfections were done on MCF-7 cells using the lipofectamine Plus reagent. At 24 hours after transfection, MCF-7 cells were left untreated or treated with triptolide (20 ng/ml) or doxorubicin (100 nM) for 4, 8, and 16 hours and cells were collected for luciferase assay. Luciferase activity was measured in samples with equal protein concentration with a Luminometer (Analytical Luminescence Laboratory, San Diego, Calif.).
Cell viability assay. Cell viability was measured by an 3-(4,5-dimethylthiazol-2-yl)-2,5-diphenyltetrazolium bromide (MTT) assay as described above. Untreated or cells treated with triptolide and/or doxorubicin were harvested at the indicated times followed by the addition of MTT to the cells in a 96-well plate. Cells were solubilized with […] acidified with 0.1N HCl. The 96-plate was read at a wavelength of 590 nm on an iEMS Labsystems plate reader.

[2] = tested on: Mdm2; experiment: Mdm2 mRNA (RT-PCR) and protein (immunoblot) in MCF-7 cells; format: cell-based, human
Protocol: RT-PCR. RNA was prepared from MCF-7 cells using Rneasy Mini Kit from Qiagen Inc. (Valencia, Calif.). cDNAs were prepared using M-MLV reverse transcriptase (Gibco) with 2 μg of total RNA. 1/20 of total cDNA was used in limited (25 cycles) PCR reactions using Taq polymerase (Gibco). The following primer pairs were used: p53 [SEQ ID NO:1] 5′-[…]-3′ and 5′-[SEQ ID NO:2] TCTTCUTXGGCTGGGGAGAG-3′, mdm2, [SEQ ID NO:3] 5′-[…]-3′ and [SEQ ID NO:4] 5′-[…]-3′, p21, [SEQ ID NO:5] 5′-[…]-3′ and [SEQ ID NO:6] 5′-[…]-3′, and glyceraldehyde-3-phosphate dehydrogenase (GAPDH)- [SEQ ID NO:7] 5′-[…]-3′ and [SEQ ID NO:8] 5′-[…]-3′.
Immunoblotting. At 8 hours after triptolide and/or doxorubicin treatment cells were harvested at the times indicated and lysed using HNET buffer (50 mM HEPES pH 7.5, 100 mM NaCl, 1 mM EGTA, and 1% Triton X-100) supplemented with 1 mM DTT, 1 mM PMSF and protease inhibitors cocktail (Boehringer Mannheim, Germany). 35 μg of protein was loaded on 10% SDS-PAGE followed by transferring to PVDF membrane. Immunoblotting was performed as previously described using a p53 mouse monoclonal antibody from Oncogene Research Products (Lee et al. (1999) J Biol Chem 274:13451-5).
In the experiments shown in FIG. 5, RT-PCR was performed using 2 μg of total RNAs extracted from MCF-7 cells. […] GADPH was used as a loading control. The plasmid pBP100-GL2 which contains a p53-binding site in the mdm2 promoter was transiently transfected into MCF-7 cells, and cellular lysates were used for the luciferase assay.

[3] = tested on: p53-binding site in the mdm2 promoter; experiment: mdm2 promoter-luciferase reporter (pBP100-GL2) in MCF-7 cells; format: cell-based, human
From the text: Reagents. PG490 (triptolide, MW 360) was obtained from Pharmagenesis (Palo Alto, Calif.). A549 (non-small cell lung cancer) and HT1080 (fibrosarcoma) cell lines were from ATCC. MCF-7 (breast cancer) cell line was obtained from Dr. Ron Weigel (Stanford University). Mouse embryonic fibroblasts (p53+/+ and p53−/−) cell lines were provided by Dr. Amato J. Giaccia (Stanford University). […] The mdm2 promoter-luciferase construct pBP100-GL2 was provided by Dr.
Louis Noumovski (Stanford University) and was made by cloning the Bgl II-Hind III fragment from the pBP100CAT vector into the pGL2-Basic Vector (Promega, Madison, Wis.). MCF-7 cells were transfected using lipofectamine Plus reagent from the Life Technologies, Inc. Cells were collected and lysates were prepared according to the manufacturer's protocol for luciferase assay (Promega Corp., Madison, Wis.). Antibodies for p53, p21^WAF1/CIP1, Mdm2, Protein phosphatase-1 (PP-1), and Erk-2 were from Calbiochem, Inc (La Jolla, Calif.) and the rabbit polyclonal Bax antibody was from Upstate Biotechnology (Lake Placid, N.Y.).
(§1) Cell culture and luciferase assay.
In the experiments shown in FIG. 5, RT-PCR was performed using 2 μg of total RNAs extracted from MCF-7 cells. […] GADPH was used as a loading control. […]

[4] = tested on: p53 wild-type (+/+) MEFs; experiment: Cell viability of p53+/+ mouse embryonic fibroblasts; format: cell-based
From the text: as §1
Functional p53 enhances triptolide-induced cell death.

[5] = tested on: HT1080 cells; experiment: Cell cycle analysis by propidium iodide/FACS, HT1080 cells; format: cell-based, human; settings: 16 h
Protocol: Cell Cycle Analysis. HT1080 cells ([…]) were treated with triptolide (20 ng/ml) and/or doxorubicin (100 nM) for 16 h. Cells were then harvested and washed with cold PBS. The cells were resuspended gently in 5 ml of 100% ethanol and fixed at 25° C. for 1 h. After washing with PBS, the cells were incubated with DNase-free RNase A (200 μg/ml) at 37 ° C. for 1 h and washed with PBS. Propidium iodide (10 μg/ml) was added, and the cells were incubated at 37° C. for 5 min. Cells were separated by sonicating at 20% output level for 15 s using a VirSonic 50 sonicator (Vitis Inc., NY). The samples were then sorted by FACS, and cell cycle analysis was done with FlowJo (version 3.0.3) (Tree Start, Inc, San Carlos, Calif.).

[6] = HT-1080, Triptolide 5 ng/ml, Doxorubicin 100 nM, alone or combined
[7] = Mus musculus, Fibroblast, read-out: reduction of cell viability

Row | Structure (SMILES) | Percent survival [1, 6] [%] | Percent survival ([1]; HT-1080, Triptolide 20 ng/ml alone or with Doxorubicin 100 nM) [%] | cytotoxicity at 0.02 µg/mL ([1]; Homo sapiens, HT-1080, read-out: decrease in cell viability) [%] | change in levels of the Mdm2 protein ([2]; MCF-7, triptolide 5 ng/ml, 8 or 24 hours) | increase in Mdm2 protein ([2]; MCF-7, triptolide 20 ng/ml, 8 h) | Mdm2 protein ([2]; MCF-7, triptolide 20 ng/ml, 24 h) | mdm2 mRNA ([2]; cells treated with triptolide) | decrease of transactivation of the reporter construct ([3]; MCF-7, triptolide 20 ng/ml) | cytotoxicity at 0.005 µg/mL [4, 7] [%] | cytotoxicity at 0.01 µg/mL [4, 7] [%] | cells in S phase ([5]; HT1080, triptolide 20 ng/ml, 23.7% in unstimulated cells) [%] | cytotoxicity at 0.1 µM ([1]; Homo sapiens, HT-1080, 48 h, read-out: decrease in cell viability, HT-1080, triptolide 5 ng/ml (13.5 nM), doxorubicin 100 nM, alone or combined, 48 hours) [%] | increase in the Mdm2 mRNA and protein ([2]; MCF-7 cells, doxorubicin 100 nM) | increase of transactivation of the Mdm2 reporter ([3]; MCF-7, doxorubicin 100 nM, by 16 h) [%] | more cell death in MEF cells with wild-type p53 than in those without functional p53 [4] [%] | cells in G2/M ([5]; HT1080, doxorubicin 100 nM alone or with triptolide 20 ng/ml, 11% without treatment) [%]
1 | CC(C)[C@]12O[C@H]1[C@@H]1O[C@]13[C@]1(O[C@H]1C[C@H]1C4=C(CC[C@@]13C)C(=O)OC4)[C@@H]2O [PG490, triptolide] | 90.4 ± 6.2 | 26.0 ± 5.2 | 74 | no significant change | approximately 1.5 fold | almost a complete loss | time-dependent decrease | approximately 30% | 48 | 73 | 46 | – | – | – | – | –
2 | COc1cccc2c1C(=O)c1c(O)c3c(c(O)c1C2=O)C[C@@](O)(C(=O)CO)C[C@@H]3O[C@H]1C[C@H](N)[C@H](O)[C@H](C)O1 [doxorubicin, reference compound] | 93.6 ± 4.3 | – | – | – | – | – | – | – | – | – | – | 6.4 | 1.5-2 fold | 15 | 35 | 49.8
